Structures can show the parent of a compound that is named as a salt.
Assays:
[1] = test system: Venturia inaequalis; test: In vivo preventive test on Venturia (apples), equilibrated mixtures (Example 17); conditions: 10 days after inoculation
[2] = test system: Botrytis cinerea; test: In vivo preventive test on Botrytis (beans) (Example 19); conditions: lesion size 3 days after inoculation
[3] = test system: Phytophthora infestans; format: in vivo; conditions: for fungicidal activity against Tomato Late Blight: 0.25, 0.50 and 1.00 weight %, FIG. 4; for Percent Control of Tomato Late Blight: 1.0 weight % in 50% ethanol
[4] = test system: Erwinia amylovora; test: In vivo control of Erwinia amylovora on apple blossoms (Example 30); conditions: concentration 0.025 % applied to blossoms; after 6-7 days
[5] = test system: Botrytis cinerea; test: In vivo preventive test on Botrytis (beans) (Example 14); conditions: rate 0.2%; lesion size 3 days after inoculation
[6] = test system: Alternaria solani; test: In vivo preventive test on Alternaria (tomatoes), equilibrated mixtures (Example 18); conditions: 3 days after inoculation
[7] = test system: Sphaerotheca fuliginea; test: In vivo preventive test on Sphaerotheca (cucumbers), equilibrated mixtures (Example 16); conditions: rate 0.015%; 7 days after inoculation
[8] = test system: Phakopsora pachyrhizi; test: In vivo preventive test on Phakopsora (soybeans) (Example 12); conditions: rate 0.05%; 7 days after inoculation
[9] = test system: Alternaria solani; test: In vivo preventive test on Alternaria (tomatoes) (Example 11); conditions: rate 0.05%; 3 days after inoculation
[10] = test system: Sphaerotheca fuliginea; test: In vivo preventive test on Sphaerotheca (cucumbers) (Example 9); conditions: rate 0.05%; 7 days after inoculation
Description: […] (Bacillus subtilis QST713 fermentation product) and the adjuvants […]-77 (polyalkyleneoxide modified heptamethyltrisiloxane), […]® (synthetic latex), NIMBUS® (paraffin mineral oil), […] (rapeseed oil methyl ester; castor oil ethoxylated) or MERO® (rapeseed oil methyl ester) were diluted in water to the desired concentrations and applied separately and in combination to young cucumber plants. After the spray coating had dried on, the plants were inoculated with an aqueous spore suspension of Sphaerotheca fuliginea. […] (Bacillus subtilis QST713 fermentation product) in combination with […]-77 (polyalkyleneoxide modified heptamethyltrisiloxane), […]® (synthetic latex), NIMBUS® (paraffin mineral oil), […] (rapeseed oil methyl ester; castor oil ethoxylated) or MERO® (rapeseed oil methyl ester) is greater than the calculated activity, i.e., a synergistic effect is present.

[11] = test system: Uromyces appendiculatus; test: In vivo preventive test on Uromyces (beans) (Example 13); conditions: rate 0.05%; 10 days after inoculation
[12] = test system: Venturia inaequalis; test: In vivo preventive test on Venturia (apples) (Example 10); conditions: rate 0.05%; 10 days after inoculation
[13] = test system: Botrytis cinerea; format: in vivo; conditions: rates between 0.0625 and 1.0 weight %; FIG. 2B
[14] = test system: Phytophthora infestans; format: in vivo; conditions: rates between 0.0625 and 2.0 weight %; FIG. 2A, FIG. 3

Question: “C12-C14 lauryl dimethyl betaine [GENAGEN ® KB]” was tested. Which “Efficacy in % Found” value ([1]; rate 0.015%) did it give?
Answer: The value was 15%.

Question: What about the “Efficacy in % Found” value ([2]; rate 0.06%) of the same compound?
Answer: Its value is 18%.

Question: And the “Efficacy in % Found” value ([2]; rate 0.12%)?
Answer: Its value is 39%.

Question: How did the “fungicidal activity against Tomato Late Blight” value (“fungicidal activity” for short) [3] turn out when `CCCCCCCCCCO[C@@H]1O[C@H](CO)[C@@H](O)[C@H](O)[C@H]1O` [n-decyl-B-D-glucoside] was run?
Answer: The value was “fungicidal activity was observed”.

Question: And the “Percent Control of Tomato Late Blight” value [3]?
Answer: Its value is 97%.

Question: With `[H]/N=C(/N)N[C@H]1[C@H](O)[C@@H](O)[C@H](O[C@@H]2O[C@@H](C)[C@](O)(C=O)[C@H]2O[C@@H]2O[C@@H](CO)[C@H](O)[C@@H](O)[C@@H]2NC)[C@@H](N/C(N)=N\[H])[C@@H]1O` [Streptomycin sulfate] as the compound, how does the Efficacy in % [4] read?
Answer: Its Efficacy in % is 89%.

Question: Which “fungicidal activity” value [3] does the source give for `CCCCCCCCCO[C@@H]1O[C@H](CO)[C@@H](O)[C@H](O)[C@H]1O` [n-nonyl-B-D-glucoside] here?
Answer: The value was “fungicidal activity was observed”.

Question: What about the “Percent Control of Tomato Late Blight” value [3] of the same compound?
Answer: The value was 77%.

Question: Which “Efficacy in % Found” value ([1]; rate 0.015%) does the source give for “cocoamidopropyl betaine (C8-C18) [GENAGEN ® CAB 818]” here?
Answer: The value was 4%.

Question: What about the “Efficacy in % Found” value ([1]; rate 0.03%) of the same compound?
Answer: The value was 68%.

Question: What about the “Efficacy in % Found” value ([1]; rate 0.06%) of the same compound?
Answer: Its value is 56%.

Question: What about the “Efficacy in % Found” value ([2]; rate 0.06%) of the same compound?
Answer: The value was 29%.

Question: And the “Efficacy in % Found” value ([2]; rate 0.12%)?
Answer: Its value is 32%.

Question: With “C8-10 alkyl polyglycoside [AGNIQUE ® PG8107G]” as the compound, how does the “Efficacy in % Found” value [5] read?
Answer: The value was 0%.

Question: “alkyl polyethylene glycol ether phosphoric acid mono/diester [HORDAPHOS ® 1306]” was tested. Which “Efficacy in % Found” value ([6]; rate 0.015%) did it give?
Answer: Its value is 30%.

Question: What about the “Efficacy in % Found” value ([6]; rate 0.03%) of the same compound?
Answer: The value was 32%.

Question: What about the “Efficacy in % Found” value ([1]; rate 0.06%) of the same compound?
Answer: Its value is 19%.

Question: What about the “Efficacy in % Found” value ([2]; rate 0.12%) of the same compound?
Answer: Its value is 0%.

Question: And the “Efficacy in % Found” value ([2]; rate 0.25%)?
Answer: The value was 14%.

Question: What about the “Efficacy in % Found” value [7] of the same compound?
Answer: The value was 0%.

Question: For “polyalkyleneoxide modified heptamethyltrisiloxane [SILWET ® L-77]”, which “Efficacy in % Found” value [8] is on record?
Answer: Its value is 0%.

Question: What about the “Efficacy in % Found” value [9] of the same compound?
Answer: The value was 16%.

Question: What about the “Efficacy in % Found” value [10] of the same compound?
Answer: The value was 0%.

Question: And the “Efficacy in % Found” value [11]?
Answer: The value was 0%.

Question: What about the “Efficacy in % Found” value [12] of the same compound?
Answer: Its value is 0%.

Question: How did the “Percent Control of Tomato Late Blight” value [3] turn out when sorbitan trioleate [SPAN ® 85] was run?
Answer: Its value is 0%.

Question: For sorbitan monolaurate [SPAN ® 20], which “control of Pepper Grey Mould” value [13] is on record?
Answer: Its value is “increasing control of the plant pathogen was observed as higher rates were applied”.

Question: And the “Percent Control of Tomato Late Blight” value [3]?
Answer: Its value is 75%.

Question: And the “control of Tomato Late Blight” value [14]?
Answer: Its value is “the highest level of control was observed at 1.0 and 2.0 weight %”.

Question: How did the “Percent Control of Tomato Late Blight” value [3] turn out when sucrose monodecanoate was run?
Answer: The value was 25%.

Question: With `CCCCCCCCCCCCOS(=O)(=O)[O-].[Na+]` [LOXANOL ® K12P, sodium dodecyl sulfate] as the compound, how does the “Efficacy in % Found” value ([6]; rate 0.015%) read?
Answer: Its value is 8%.

Question: And the “Efficacy in % Found” value ([6]; rate 0.03%)?
Answer: The value was 0%.

Question: What about the “Efficacy in % Found” value ([6]; rate 0.06%) of the same compound?
Answer: The value was 23%.

Question: And the “Efficacy in % Found” value ([6]; rate 0.12%)?
Answer: Its value is 30%.

Question: What about the “Efficacy in % Found” value ([1]; rate 0.03%) of the same compound?
Answer: Its value is 11%.

Question: And the “Efficacy in % Found” value ([1]; rate 0.06%)?
Answer: Its value is 41%.

Question: And the “Efficacy in % Found” value ([1]; rate 0.12%)?
Answer: The value was 73%.

Question: What about the “Efficacy in % Found” value ([2]; rate 0.12%) of the same compound?
Answer: The value was 0%.

Question: How did the “Percent Control of Tomato Late Blight” value [3] turn out when sorbitan oleate [SPAN ® 80] was run?
Answer: Its value is 50%.

Question: For `CCCCCCCCCCCCO[C@@H]1O[C@H](CO)[C@@H](O)[C@H](O)[C@H]1O` [n-dodecyl-B-D-glucoside], which “fungicidal activity” value [3] is on record?
Answer: Its value is “fungicidal activity was observed”.

Question: And the “Percent Control of Tomato Late Blight” value [3]?
Answer: Its value is 96%.

Question: For octyl glucose neopentyl glycol, which “fungicidal activity” value [3] is on record?
Answer: The value was “fungicidal activity was observed”.

Question: `CCCCC(CC)COC(=O)CC(C(=O)OCC(CC)CCCC)S(=O)(=O)[O-].[Na+]` (stereo not drawn) [GEROPON ® DOS-PG] was tested. Which “Efficacy in % Found” value [8] did it give?
Answer: The value was 0%.

Question: And the “Efficacy in % Found” value [9]?
Answer: Its value is 35%.

Question: And the “Efficacy in % Found” value ([1]; rate 0.03%)?
Answer: The value was 38%.

Question: And the “Efficacy in % Found” value ([1]; rate 0.06%)?
Answer: The value was 15%.

Question: What about the “Efficacy in % Found” value ([1]; rate 0.12%) of the same compound?
Answer: The value was 28%.

Question: And the “Efficacy in % Found” value [11]?
Answer: Its value is 0%.
